Reference: patent publication US20070128217A1 (priority 2003, published 2007)

Tests used:
[1] = test system: control sera (pooled serum of ten healthy LUMC hospital workers; commercial negative donor pooled serum from the Dutch bloodbank); type: binding, human; set-up: Binding of Control serum LUMC to linear peptides / Binding of Control serum Blood-bank to linear peptides / Binding of Control serum LUMC to looped peptides / Binding of Control Serum Blood-Bank to Looped peptides / Binding of Control serum LUMC to linear peptides of the protein M of SARS-CoV Urbani / Binding of Control serum Blood-bank to linear peptides of the protein M of SARS-CoV Urbani / Binding of Control serum LUMC to looped peptides of the protein M of SARS-CoV Urbani / Binding of Control Serum Blood-Bank to Looped peptides of the protein M of SARS-CoV Urbani: unit not given here
[2] = test system: rabbit serum obtained by immunizing a rabbit with the SARS-CoV strain Frankfurt 1; type: binding; set-up: Binding of a rabbit serum to linear peptides / Binding of a rabbit serum to looped peptides / Rabbit serum linear peptides / Rabbit serum looped peptides / Binding of a rabbit serum to linear peptides of protein N of SARS-CoV Urbani (Rabbit serum linear peptides) / Binding of a rabbit serum to looped/cyclic peptides of protein N of SARS-CoV Urbani (Rabbit serum looped peptides): unit not given here
[3] = test system: antibodies in sera from SARS patients (sera 1a, 1b, 2, 6, 37, 62, London, SARS-yellow, SARS-green); type: binding, human; set-up: Binding of serum 6 to linear peptides of protein X1 of SARS-CoV Urbani / Binding of serum 37 to linear peptides of protein X1 of SARS-CoV Urbani / Binding of serum 6 to looped/cyclic peptide (PEPSCAN-ELISA) / Binding of serum 37 to looped/cyclic peptide (PEPSCAN-ELISA) / Binding of serum 37 to looped/cyclic peptides of protein X1 of SARS-CoV Urbani / Binding of serum 6 to linear peptides of protein X2 / Binding of serum 37 to linear peptides of protein X2 / Binding of serum 37 to looped/cyclic peptides of protein X2 of SARS-CoV Urbani / Binding of serum 6 to linear peptides of protein M of SARS-CoV Urbani / Binding of serum 37 to linear peptides of protein M of SARS-CoV Urbani / Binding of serum 6 to looped/cyclic peptides of protein M of SARS-CoV Urbani / Binding of serum 37 to looped/cyclic peptides of protein M of SARS-CoV Urbani / Binding of serum 6 to linear peptides of protein X3 of SARS-CoV Urbani / Binding of serum 37 to linear peptides of protein X3 of SARS-CoV Urbani / Binding of serum 37 to looped/cyclic peptides of protein X3 of SARS-CoV Urbani / Binding of serum 6 to linear peptides of protein X4 of SARS-CoV Urbani / Binding of serum 37 to linear peptides of protein X4 of SARS-CoV Urbani / Binding of serum 37 to looped/cyclic peptides of protein X4 of SARS-CoV Urbani / Binding of serum 6 to linear peptides of protein X5 of SARS-CoV Urbani / Binding of serum 37 to linear peptides of protein X5 of SARS-CoV Urbani / Binding of serum 37 to looped/cyclic peptides of protein X5 of SARS-CoV Urbani / Binding of serum 6 to linear peptides of protein N of SARS-CoV Urbani / Binding of serum 37 to linear peptides of protein N of SARS-CoV Urbani / Binding of serum 6 to linear peptide (PEPSCAN-ELISA) / Binding of serum 1a to looped/cyclic peptides of protein N of SARS-CoV Urbani / Binding of serum 1b to looped/cyclic peptides of protein N of SARS-CoV Urbani / Binding of serum 2 to looped/cyclic peptides of protein N of SARS-CoV Urbani / Binding of serum 6 to looped/cyclic peptides of protein N of SARS-CoV Urbani / Binding of serum 37 to looped/cyclic peptides of protein N of SARS-CoV Urbani / Binding of serum 62 to looped/cyclic peptides of protein N of SARS-CoV Urbani / Binding of serum London to looped/cyclic peptides of protein N of SARS-CoV Urbani / Binding of serum SARS-green to looped/cyclic peptides of protein N of SARS-CoV Urbani: unit not given here

In the case of LKILVRYNTRGNTYS, the “Binding of Control Serum Blood-Bank to Looped peptides” value [1] is reported as 0.4, the “Binding of Control serum Blood-bank to linear peptides” value [1] is reported as 0.7 and the “Binding of Control serum LUMC to linear peptides” value [1] is reported as 0.5. For the same sequence, the “Binding of Control serum LUMC to looped peptides” value [1] was 0.6, the “Rabbit serum linear peptides” value [2] was 0.9 and the “Rabbit serum looped peptides” value [2] was 0.1. The “Binding of serum 1a to linear peptides of protein X5 of SARS-CoV Urbani” value [3] was 0.7, the “Binding of serum 1a to looped/cyclic peptides of protein X5 of SARS-CoV Urbani” value [3] was 0.5 and the “Binding of serum 1b to linear peptides of protein X5 of SARS-CoV Urbani” value [3] was 0.6. For the same sequence, the “Binding of serum 1b to looped/cyclic peptides of protein X5 of SARS-CoV Urbani” value [3] was 0.4, the “Binding of serum 2 to linear peptides of protein X5 of SARS-CoV Urbani” value [3] was 0.8 and the “Binding of serum 2 to looped/cyclic peptides of protein X5 of SARS-CoV Urbani” value [3] was 0.6. The “Binding of serum 6 to linear peptides of protein X5 of SARS-CoV Urbani” value [3] was 0.8, the “Binding of serum 6 to looped/cyclic peptides of protein X5 of SARS-CoV Urbani” value [3] was 0.5 and the “Binding of serum 37 to linear peptides of protein X5 of SARS-CoV Urbani” value [3] was 0.7. For the same sequence, the “Binding of serum 37 to looped/cyclic peptides of protein X5 of SARS-CoV Urbani” value [3] was 0.5, the “Binding of serum 62 to linear peptides of protein X5 of SARS-CoV Urbani” value [3] was 0.8 and the “Binding of serum 62 to looped/cyclic peptides of protein X5 of SARS-CoV Urbani” value [3] was 0.7. For the same sequence, the “Binding of serum London to linear peptides of protein X5 of SARS-CoV Urbani” value [3] was 0.7, the “Binding of serum London to looped/cyclic peptides of protein X5 of SARS-CoV Urbani” value [3] was 0.2 and the “Binding of serum SARS-green to linear peptides of protein X5 of SARS-CoV Urbani” value [3] was 0.6. For the same sequence, the “Binding of serum SARS-green to looped/cyclic peptides of protein X5 of SARS-CoV Urbani” value [3] was 0.4, the “Binding of serum SARS-yellow to linear peptides of protein X5 of SARS-CoV Urbani” value [3] was 0.3 and the “Binding of serum SARS-yellow to looped/cyclic peptides of protein X5 of SARS-CoV Urbani” value [3] was 0.8.

For LKQLLEQWNLVIGFL, the “Binding of Control Serum Blood-Bank to Looped peptides of the protein M of SARS-CoV Urbani” value [1] was 0.7, the “Binding of Control serum Blood-bank to linear peptides of the protein M of SARS-CoV Urbani” value [1] was 0.7 and the “Binding of Control serum LUMC to linear peptides of the protein M of SARS-CoV Urbani” value [1] was 0.3. The “Binding of Control serum LUMC to looped peptides of the protein M of SARS-CoV Urbani” value [1] was 0.7, the “Rabbit serum linear peptides” value [2] was 0.2 and the “Rabbit serum looped peptides” value [2] was 0.1. For the same sequence, the “Binding of serum 1a to linear peptides of protein M of SARS-CoV Urbani” value [3] was 0.7, the “Binding of serum 1a to looped/cyclic peptides of protein M of SARS-CoV Urbani” value [3] was 0.6 and the “Binding of serum 1b to linear peptides of protein M of SARS-CoV Urbani” value [3] was 0.5. The “Binding of serum 1b to looped/cyclic peptides of protein M of SARS-CoV Urbani” value [3] was 0.6, the “Binding of serum 2 to linear peptides of protein M of SARS-CoV Urbani” value [3] was 0.6 and the “Binding of serum 2 to looped/cyclic peptides of protein M of SARS-CoV Urbani” value [3] was 0.4. For the same sequence, the “Binding of serum 6 to linear peptides of protein M of SARS-CoV Urbani” value [3] was 0.7, the “Binding of serum 6 to looped/cyclic peptides of protein M of SARS-CoV Urbani” value [3] was 0.8 and the “Binding of serum 37 to linear peptides of protein M of SARS-CoV Urbani” value [3] was 0.7. The “Binding of serum 37 to looped/cyclic peptides of protein M of SARS-CoV Urbani” value [3] was 0.5, the “Binding of serum 62 to linear peptides of protein M of SARS-CoV Urbani” value [3] was 0.7 and the “Binding of serum 62 to looped/cyclic peptides of protein M of SARS-CoV Urbani” value [3] was 0.7. The “Binding of serum London to linear peptides of protein M of SARS-CoV Urbani” value [3] was 1.0, the “Binding of serum London to looped/cyclic peptides of protein M of SARS-CoV Urbani” value [3] was 0.2 and the “Binding of serum SARS-green to linear peptides of protein M of SARS-CoV Urbani” value [3] was 0.2. For the same sequence, the “Binding of serum SARS-green to looped/cyclic peptides of protein M of SARS-CoV Urbani” value [3] was 0.4, the “Binding of serum SARS-yellow to linear peptides of protein M of SARS-CoV Urbani” value [3] was 0.1 and the “Binding of serum SARS-yellow to looped/cyclic peptides of protein M of SARS-CoV Urbani” value [3] was 0.7.

With LKTHRMCKYTQSTAL the “Binding of Control Serum Blood-Bank to Looped peptides” value [1] was 0.7, the “Binding of Control serum Blood-bank to linear peptides” value [1] was 0.7 and the “Binding of Control serum LUMC to linear peptides” value [1] was 0.6. For the same sequence, the “Binding of Control serum LUMC to looped peptides” value [1] was 0.6, the “Binding of a rabbit serum to linear peptides” value [2] was 0.4 and the “Binding of a rabbit serum to looped peptides” value [2] was 0.5. For the same sequence, the “Binding of serum 1a to linear peptides of protein X2” value [3] was 0.8, the “Binding of serum 1a to looped/cyclic peptides of protein X2 of SARS-CoV Urbani” value [3] was 0.6 and the “Binding of serum 1b to linear peptides of protein X2” value [3] was 0.6. For the same sequence, the “Binding of serum 1b to looped/cyclic peptides of protein X2 of SARS-CoV Urbani” value [3] was 0.6, the “Binding of serum 2 to linear peptides of protein X2” value [3] was 0.5 and the “Binding of serum 2 to looped/cyclic peptides of protein X2 of SARS-CoV Urbani” value [3] was 0.4. The “Binding of serum 6 to linear peptides of protein X2” value [3] was 0.6, the “Binding of serum 6 to looped/cyclic peptides of protein X2 of SARS-CoV Urbani” value [3] was 0.5 and the “Binding of serum 37 to linear peptides of protein X2” value [3] was 0.7. The “Binding of serum 37 to looped/cyclic peptides of protein X2 of SARS-CoV Urbani” value [3] was 0.5, the “Binding of serum 62 to linear peptides of protein X2” value [3] was 0.7 and the “Binding of serum 62 to looped/cyclic peptides of protein X2 of SARS-CoV Urbani” value [3] was 0.6. The “Binding of serum London to linear peptides of protein X2” value [3] was 0.5, the “Binding of serum London to looped/cyclic peptides of protein X2 of SARS-CoV Urbani” value [3] was 0.2 and the “Binding of serum SARS-green to linear peptides of protein X2” value [3] was 0.5. The “Binding of serum SARS-green to looped/cyclic peptides of protein X2 of SARS-CoV Urbani” value [3] was 0.3, the “Binding of serum SARS-yellow to linear peptides of protein X2” value [3] was 0.8 and the “Binding of serum SARS-yellow to looped/cyclic peptides of protein X2 of SARS-CoV Urbani” value [3] was 0.6.
